{"source": "patent US20110129532A1", "about": "“METHOD AND MEANS FOR TREATING VIRAL DISEASE, IN PARTICULAR HIV/AIDS” (ISR Immune System Regulation AB, priority 2008, published 2011)", "key": {"[1]": {"system": "PBMC", "test": "IL-2-induced PBMC proliferation assay ([3H]thymidine)", "assay_type": "cell-based, human", "settings": "PBMC from a healthy donor; with IL-2 50 U/mL; compared with IL-2 alone and untreated controls; FIG. 1", "protocol": "Isolation of peripheral blood mononuclear cells (PBMC). Lymphocytes and monocytes were purified from blood samples from healthy donors using Ficoll-Paque Plus (Amersham Biosciences, Uppsala, Sweden). The blood sample was diluted with PBS and carefully layered on a Ficoll-sodium diatrizoate solution, after which the two-phase system was centrifuged at 400×g for 30 min. […] The lymphocyte layer was collected using a Pasteur pipette, and the cells washed with HBSS to remove excess Ficoll-Paque Plus, plasma and platelets. The cells were counted and dissolved in RPMI medium containing 10% HuS, 1% PeSt and 1% glutamine.\nProliferation assay. Interleukin (IL)-2 plays a pivotal role in lymphocyte activation and proliferation. For this reason the effect of GnRH analog on IL-2-induced PBMC proliferation was investigated. PBMCs from a healthy donor were plated in round-bottomed 96-well plates at a concentration of 1×10^5 cells/100 μL in the culture medium described above. Just after the onset of culture, the cells were treated with IL-2 (Proleukin, Chiron Corporation, Emeryville, Ca, USA) at a concentration of 50 U/mL and with three different concentrations between 1×10^−9 and 1×10^−5 M of GnRH analog (Leuprolide acetate, Nordic Drugs, Limhamn, Sweden) or culture medium (FIG. 1). […] Radioactivity was measured using a 1205 Betaplate Liquid ScintillCounter (Wallac, Turku, Finland)."}, "[2]": {"system": "T cells", "test": "Stimulation of T cells in whole blood with GnRH analog, activation markers by flow cytometry", "assay_type": "cell-based, human", "protocol": "Stimulation of T-cells from HIV-patients with GnRH-analog. Because of the risk of contamination, blood samples from HIV-patients had to be handled and analyzed in a closed automated system. Heparinised blood from three HIV-patients and two healthy individuals was diluted with serum-free culture medium (Aim V from Invitrogen) and stimulated with 50 U/mL IL-2 and four different concentrations of the GnRH analog leuprolide acetate between 10^−1 and 10^−5 M. The blood samples were handled by a dispensation robot (Prep Plus) and incubated, lysed, stabilized and fixed in a TQ-Prep machine. The incubation time was 18 h and the temperature 37° C. After the incubation with Leuprolide acetate and IL-2, the cells were stained with fluorochrome-conjugated mAbs for 10 min, and red blood cells were lysed. The lymphocytes were subsequently analysed by flow cytometry on an Epics XL-MCL (all machines from Beckman Coulter). T-cells were identified by their forward-and side scatter properties, and the surface expression of CD3. The expression of the activation markers CD25, CD69, HLA ABC, and HLA DR on T cells was evaluated."}, "[3]": {"settings": "whole blood, HIV-infected patients and control subjects, 18 h incubation"}}, "data": [{"smiles": "CCNC(=O)[C@@H]1CCCN1C(=O)[C@H](CCCNC(=N)N)NC(=O)[C@H](CC(C)C)NC(=O)[C@@H](CC(C)C)NC(=O)[C@H](Cc1ccc(O)cc1)NC(=O)[C@H](CO)NC(=O)[C@H](Cc1c[nH]c2ccccc12)NC(=O)[C@H](Cc1c[nH]cn1)NC(=O)[C@@H]1CCC(=O)N1", "note": "[GnRH, D-Leu^6, des-Gly-NH2^10] GnRH (1-9) NHEt]", "values": [{"measurement": "PBMC proliferation", "setting": "[1]", "result": "increased proliferation"}, {"measurement": "expression of HLA DR on T cells", "setting": "[2]; whole blood from HIV-patients, 18 h incubation", "result": "increased in one of three HIV-patients"}, {"measurement": "expression of HLA ABC on T cells", "setting": "[2]; whole blood from healthy subjects or HIV-infected patients, 18 hours incubation, 50 U/mL IL-2, leuprolide acetate between 10^−1 and 10^−5 M, FIG. 6", "result": "upregulation of HLA ABC"}, {"measurement": "expression of CD25 on T cells", "setting": "[2]; [3]", "result": "only a slight increase"}, {"measurement": "expression of CD69 on T cells", "setting": "[2]; [3]", "result": "only a slight increase"}]}]}
